The text below walks through data of patent US9149546B2, “Compound having affinity for amyloid” (NIHON MEDI-PHYSICS CO., LTD., priority 2011, dated 2015).

Series [1] can be described thus: Measurement of partition coefficient based on the octanol extraction method. It counts as physicochemical. Particulars: water saturated 1-octanol / 1-octanol saturated water, 20 to 25±2° C. The procedure:
Water saturated 1-octanol and 1-octanol saturated water were added to the equilibrated vessel each in an amount of 200 μL, 400 μL or 800 μL. The equilibrated vessel was subjected to stirring, and then was shaken for 5 minutes (20 to 25±2° C., 20 rpm). […] Using the obtained count, log Poctanol was calculated in accordance with the following equation (1).

In series [2] the target is amyloid aggregates in the brain of AD patients (Homo sapiens, UniProt P05067). Description: Binding assay using brain gray matter homogenate of AD patients (Kd, Bmax). Particulars: mixed solution of Compound 1 and Compound 3, 0.2 to 25 nmol/L; brain gray matter homogenate (frontal lobe) of AD patients; 22° C., 3 hours. The procedure:
Calculation of Dissociation Constant (Hereinafter, Referred to as Kd) and Maximum Binding Amount (Hereinafter, Referred to as Bmax) Resulting from Binding Assay Using Brain Tissue of Patients of Alzheimer's Disease (Hereinafter, Referred to as AD)
The assay was conducted using a brain gray matter homogenate of AD patients, which was prepared from a brain tissue (Frontal lobe) of AD patients commercially available from Analytical Biological Services Inc. (United States).
A mixed solution of Compound 1 (about 35 kBq/100 μL) and Compound 3 (62.5 nmol/L) was diluted with a 0.1% bovin serum albumin (hereinafter referred to as BSA)-containing 5 mmol/L phosphate buffer saline solution, and prepared to have a concentration of 0.2 nmol/L to 25 nmol/L in the reaction solution. To each well of a 96-well microplate, 100 μL of a 0.1% BSA-containing 5 mmol/L phosphate buffer saline solution and 100 μL of the prepared mixed solution of Compound 1 and Compound 3 were added. […] The filter after filtration was washed with a 0.1% BSA-containing 5 mmol/L phosphate buffer saline solution (200 μL×3 times), and then radioactivity remaining in the filter was measured with an Autowell Gamma system (type: ARC-7001, manufactured by Aloka). […] The resulting count was analyzed with GraphPad Prism Ver. 5 (manufactured by GraphPad Software, Inc.), and binding parameter (Kd, Bmax) was calculated.

Series [3] deals with site of amyloid deposition in brain slice of AD patients. Put plainly: Confirmation of compound avidity for brain slice of AD patients by autoradiography. It counts as binding, human. Particulars: 5 μm brain slice of AD patients, 10 kBq/mL, 30 minutes, room temperature; amyloid deposition confirmed by immunostaining. The procedure:
The following experiment was carried out in order to examine whether amyloid in brain of AD patients can be imaged by the compound of the present invention. • (1) A 5 μm-thick brain slice of AD patients was prepared from a brain tissue of AD patients available from Analytical Biological Services Inc. (United States). • (2) The brain slice was immersed in PBS for 15 minutes, 5 minutes and 5 minutes each. […] Then, it was immersed in a 1% BSA-containing PBS solution, a PBS solution and a PBS solution each for 5 minutes to wash the brain slice. The washed brain slice was sufficiently dried, and then exposed to an imaging plate for 16 hours, and then autoradiogram image analysis was carried out by use of a Bio-imaging Analyzer (type: BAS-2500; manufactured by FUJIFILM Corporation) (FIG. 3, FIG. 4, FIG. 5). • (3) Immunostaining at a site of amyloid deposition with an anti-amyloid antibody was carried out using adjacent slices. Anti-Human Amyloidβ (N) (82E1) Mouse IgG MoAb (Immuno-Biological Laboratories Co., Ltd.) was used as the anti-amyloid antibody, and Anti-Mouse IgG (H+L) Goat IgG Fab′-HRP (Immuno-Biological Laboratories Co., Ltd.) was used as a secondary antibody. […] Results

Series [4] can be described thus: Measurement of transferability into brain and clearance. It counts as in vivo, male Wistar rats. Particulars: rats, intravenous injection; for Radioactive accumulation per unit weight, After 2 min. / Radioactive accumulation per unit weight, After 5 min. / Radioactive accumulation per unit weight, After 15 min. / Radioactive accumulation per unit weight, After 30 min. / Radioactive accumulation per unit weight, After 60 min.: brain; for Radioactive accumulation per unit weight, After 2 min.: 2 min after injection; for Radioactive accumulation per unit weight, After 5 min.: 5 min after injection; for Radioactive accumulation per unit weight, After 15 min.: 15 min after injection; for Radioactive accumulation per unit weight, After 30 min.: 30 min after injection; for Radioactive accumulation per unit weight, After 60 min.: 60 min after injection; for transferability to brain and clearance from brain (in words): 2 to 60 min. The procedure: The sample solution was injected under non-anesthesia into the tail vein of male Wistar rats (8-week old) (dosage: 0.2 mL, dosed radioactivity: 7.4 MBq equivalent). The rats were sacrificed by decapitating under non-anesthesia to sample bloods and brains 2, 5, 15, 30 and 60 minutes after the injection. Brains were subjected to measurement of mass of brains and further subjected to measurement of radioactivity (hereinafter referred to as A in this Example) with a single channel analyzer (detector type SP-20 manufactured by OHYO KOKEN KOGYO Co., Ltd.). Further, the radioactivity level of the rest of the whole body including blood was measured in the same manner as above (hereinafter referred to as B in this Example). Using these measurement results, the amount of radioactive accumulation per unit weight of brain (% ID/g) at the respective time points were calculated in accordance with the following formula (2).
Separately, a solution of [^123I]-IMPY dissolved in a physiological saline solution containing 50 mmol/L of L-cysteine hydrochloride (radioactive concentration: 37 MBq/mL) was prepared. The same procedure as above was carried out to calculate the amount of radioactive accumulation per unit weight of brain (% ID/g) at the respective time points.
Meanwhile, in this Example, three animals were used for the experiment at the respective time points.

Chain of amyloid aggregates in the brain of AD patients (P05067 672-713): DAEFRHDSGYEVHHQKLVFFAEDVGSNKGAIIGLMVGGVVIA

`[123I]c1ccc2nc(-c3ccc(-n4ccnn4)cc3)cn2c1` [Compound 1, [^123I]-6-iodo-2-[4-(1H-1,2,3,-triazole-1-yl)phenyl]imidazo[1,2-a]pyridine]: the logP at 5 min in series [1] (1-octanol/water, read-out: logPoctanol value) was 1.98. For the same compound, the logPoctanol value in series [1] was found to be 1.98. The Bmax in series [2] is on record as 2242 fmol/mg protein. In addition, the “binding to the site of amyloid deposition on autoradiogram” value (“binding to the site” for short) in series [3] is “confirmed”. In series [4], the “Radioactive accumulation per unit weight, After 2 min.” value is 1.085 % ID/g; the “Radioactive accumulation per unit weight, After 5 min.” value came to 0.701 % ID/g; the “Radioactive accumulation per unit weight, After 15 min.” value was found to be 0.260 % ID/g; the “Radioactive accumulation per unit weight, After 30 min.” value worked out at 0.100 % ID/g. Besides, in series [4], the “Radioactive accumulation per unit weight, After 60 min.” value stood at 0.034 % ID/g; the “transferability to brain and clearance from brain (in words)” value is “excellent transferability to brain and rapid clearance from brain”.
Regarding “[^123I]-6-iodo-2-[4-(1H-pyrrole-1-yl)phenyl]imidazo[1,2-a]pyridine [Compound 2]”, the “binding to the site” value in series [3] is “confirmed”. In addition, in series [4], the “Radioactive accumulation per unit weight, After 2 min.” value amounted to 1.201 % ID/g; the “Radioactive accumulation per unit weight, After 5 min.” value is 1.065 % ID/g; the “Radioactive accumulation per unit weight, After 15 min.” value was 0.745 % ID/g; the “Radioactive accumulation per unit weight, After 30 min.” value is 0.349 % ID/g. In series [4], the “Radioactive accumulation per unit weight, After 60 min.” value stood at 0.113 % ID/g; the “transferability to brain and clearance from brain (in words)” value is “excellent transferability to brain and rapid clearance from brain”.
Turning to `CN(C)c1ccc(-c2cn3cc(I)ccc3n2)cc1` [[^123I]-IMPY, 6-iodo-2-[4′-(N,N-dimethylamino)phenyl]imidazo[1,2-a]pyridine, reference compound], the “binding to the site” value in series [3] is “confirmed”. For the same compound, in series [4], the “Radioactive accumulation per unit weight, After 2 min.” value turned out to be 1.644 % ID/g; the “Radioactive accumulation per unit weight, After 5 min.” value is on record as 1.192 % ID/g; the “Radioactive accumulation per unit weight, After 15 min.” value was found to be 0.554 % ID/g; the “Radioactive accumulation per unit weight, After 30 min.” value came out at 0.225 % ID/g. Also, in series [4], the “Radioactive accumulation per unit weight, After 60 min.” value came out at 0.085 % ID/g.
